According to the supplement of paper PMC13380429:

Legend:
Details in all cases: 72 h
[1] = system: Caco-2; assay: cell viability relative to DMSO; higher = less toxic
[2] = system: Calu-3; assay: as above
[3] = system: HepG2; assay: as above
[4] = system: U2OS; assay: as above
[5] = system: Vero E6; assay: as above
[6] = system: Caco-2; assay: relative viability EC50 (midpoint between 100% and the lowest measured viability); higher = less toxic
[7] = system: Calu-3; assay: as above
[8] = system: HepG2; assay: as above
[9] = system: U2OS; assay: as above
[10] = system: Vero E6; assay: as above
[11] = system: Caco-2; assay: drug sensitivity score (DSS) for viability; higher = more toxic; extreme values may be limits of the assay
[12] = system: Calu-3; assay: as above
[13] = system: HepG2; assay: as above
[14] = system: U2OS; assay: as above
[15] = system: Vero E6; assay: as above

Row | Compound | cell viability ([1]; 1 nM) [%] | cell viability ([1]; 10 nM) [%] | cell viability ([1]; 100 nM) [%] | cell viability ([1]; 1000 nM) [%] | cell viability ([1]; 10000 nM) [%] | cell viability ([2]; 1 nM) [%] | cell viability ([2]; 10 nM) [%] | cell viability ([2]; 100 nM) [%] | cell viability ([2]; 1000 nM) [%] | cell viability ([2]; 10000 nM) [%] | cell viability ([3]; 1 nM) [%] | cell viability ([3]; 10 nM) [%] | cell viability ([3]; 100 nM) [%] | cell viability ([3]; 1000 nM) [%] | cell viability ([3]; 10000 nM) [%] | cell viability ([4]; 1 nM) [%] | cell viability ([4]; 10 nM) [%] | cell viability ([4]; 100 nM) [%] | cell viability ([4]; 1000 nM) [%] | cell viability ([4]; 10000 nM) [%] | cell viability ([5]; 1 nM) [%] | cell viability ([5]; 10 nM) [%] | cell viability ([5]; 100 nM) [%] | cell viability ([5]; 1000 nM) [%] | cell viability ([5]; 10000 nM) [%] | relative viability EC50 [6] [µM] | relative viability EC50 [7] [µM] | relative viability EC50 [8] [µM] | relative viability EC50 [9] [µM] | relative viability EC50 [10] [µM] | drug sensitivity score [11] | drug sensitivity score [12] | drug sensitivity score [13] | drug sensitivity score [14] | drug sensitivity score [15]
1 | Oc1ccc(C(O)CNCCCCCCNCC(O)c2ccc(O)c(O)c2)cc1O (stereo not given) [hexoprenaline] | 97.3 | 102 | 93.7 | 95.9 | 88.3 | 95.8 | 97.9 | 99.7 | 97.9 | 100 | 103 | 104 | 110 | 93.2 | 103 | 102 | 97.6 | 95.4 | 102 | 95 | 103 | 109 | 99.2 | 101 | 98.7 | > 10 | > 10 | > 10 | > 10 | > 10 | 0 | 0 | 0 | 0 | 0
2 | O=[N+]([O-])/N=C1\NCCN1Cc1ccc(Cl)nc1 [imidacloprid] | 104 | 94.6 | 99.8 | 88.6 | 104 | 103 | 98.5 | 103 | 98.8 | 106 | 98.2 | 109 | 99.7 | 98.9 | 93.1 | 97.4 | 95.7 | 103 | 92.3 | 94.4 | 95.1 | 95.8 | 96.7 | 98 | 96.5 | > 10 | > 10 | > 10 | > 10 | > 10 | 0 | 0 | 0 | 0 | 0
3 | CC1(C)C(/C=C/C=C/C=C/C=C2\N(CCCCS(=O)(=O)O)c3ccc4ccccc4c3C2(C)C)=[N+](CCCCS(=O)(=O)[O-])c2ccc3ccccc3c21 [indocyanine-green] | 98.2 | 87.1 | 105 | 94.8 | 86.9 | 98.6 | 108 | 91.6 | 96 | 88.3 | 93.1 | 89.4 | 106 | 94.9 | 94.5 | 105 | 101 | 97.4 | 99.1 | 95.4 | 96.5 | 99.4 | 102 | 101 | 94.1 | > 10 | > 10 | > 10 | > 10 | > 10 | 0.4 | 0 | 0 | 0 | 0
4 | O=C(O[C@H]1[C@H](OC(=O)c2cccnc2)[C@@H](OC(=O)c2cccnc2)[C@H](OC(=O)c2cccnc2)[C@@H](OC(=O)c2cccnc2)[C@H]1OC(=O)c1cccnc1)c1cccnc1 [inositol-hexanicotinate] | 92.2 | 88.9 | 103 | 89.3 | 91.2 | 102 | 93.3 | 100 | 103 | 110 | 90.9 | 112 | 89.1 | 96.5 | 94.6 | 92.4 | 90.5 | 99 | 98.5 | 99.4 | 105 | 102 | 90.9 | 93.7 | 113 | > 10 | > 10 | > 10 | > 10 | > 10 | 0 | 0 | 0 | 0 | 0
5 | Cc1cc(C)n(-c2cccc([C@H](CC(=O)O)CN3CC[C@@H](CCc4ccc5c(n4)NCCC5)C3)c2)n1 [integrin-antagonist-1] | 104 | 102 | 94.4 | 99 | 105 | 92.1 | 98 | 101 | 96.6 | 98.4 | 107 | 97.8 | 104 | 97.8 | 99.9 | 104 | 95.6 | 104 | 103 | 97.2 | 99.2 | 102 | 105 | 95 | 99.1 | > 10 | > 10 | > 10 | > 10 | > 10 | 0 | 0 | 0 | 0 | 0
6 | O=C(Nc1cnn2ccc(N3CCC[C@@H]3c3cc(F)ccc3F)nc12)N1CC[C@H](O)C1 [larotrectinib] | 93.9 | 92.8 | 85.3 | 101 | 86 | 96.8 | 106 | 94.9 | 94.7 | 112 | 98.1 | 108 | 103 | 105 | 103 | 97.2 | 105 | 97.9 | 98.1 | 99.6 | 97.9 | 94.3 | 101 | 105 | 93.6 | > 10 | > 10 | > 10 | > 10 | > 10 | 0 | 0 | 0 | 0 | 0
7 | CCC/C=C1\OC(=O)C2=C1CCC=C2 [ligustilide] | 100 | 104 | 113 | 122 | 83.6 | 100 | 88.8 | 103 | 101 | 106 | 106 | 106 | 111 | 94.6 | 110 | 96.2 | 101 | 101 | 95.4 | 94.7 | 93.8 | 101 | 102 | 100 | 106 | > 10 | > 10 | > 10 | > 10 | > 10 | 0.1 | 0 | 0 | 0 | 0
8 | N#C/C(=C1/SC[C@@H](c2ccc(Cl)cc2Cl)S1)n1ccnc1 [luliconazole] | 102 | 98.1 | 96.7 | 90.6 | 89.7 | 95.8 | 109 | 96.8 | 95.7 | 89.6 | 104 | 105 | 97.5 | 105 | 96 | 100 | 100 | 98.9 | 96.7 | 96.9 | 101 | 99 | 93.8 | 102 | 94.5 | > 10 | > 10 | > 10 | > 10 | > 10 | 0 | 0 | 0 | 0 | 0
9 | Cc1ccc(Nc2c(F)cccc2Cl)c(CC(=O)O)c1 [lumiracoxib] | 93 | 97 | 95 | 100 | 107 | 93.7 | 93.9 | 90.8 | 98.9 | 104 | 97 | 103 | 109 | 106 | 118 | 94.1 | 98.7 | 94.8 | 103 | 105 | 95.4 | 94.8 | 105 | 100 | 100 | > 10 | > 10 | > 10 | > 10 | > 10 | 0 | 0 | 0 | 0 | 0
10 | C=CCc1ccc(O)c(-c2cc(CC=C)ccc2O)c1 [magnolol] | 104 | 95.3 | 88.6 | 102 | 89.5 | 99.3 | 90.3 | 90.3 | 99.4 | 110 | 97.8 | 85.7 | 97.8 | 102 | 106 | 96.7 | 102 | 99.2 | 102 | 95.3 | 98.6 | 98.3 | 98.9 | 101 | 94.8 | > 10 | > 10 | > 10 | > 10 | > 10 | 0 | 0 | 0 | 0 | 0
11 | CN1C[C@@H](NS(=O)(=O)N(C)C)C[C@@H]2c3cccc4c3c(cn4C)C[C@H]21 [mesulergine] | 108 | 102 | 105 | 98.9 | 108 | 111 | 106 | 107 | 96.1 | 102 | 101 | 99.3 | 106 | 108 | 100 | 103 | 100 | 101 | 101 | 99.9 | 97.5 | 104 | 94.1 | 97.9 | 94.9 | > 10 | > 10 | > 10 | > 10 | > 10 | 0 | 0 | 0 | 0 | 0
12 | Clc1ccc(C(c2ccccc2Cl)C(Cl)Cl)cc1 (stereo not given) [mitotane] | 100 | 90.7 | 97.9 | 99.4 | 91.9 | 92.8 | 102 | 89.1 | 97.1 | 99.6 | 89.9 | 89.9 | 87.9 | 85.4 | 94.6 | 98.5 | 93.2 | 98.6 | 97.7 | 97.7 | 106 | 96.6 | 101 | 101 | 97.6 | > 10 | > 10 | > 10 | > 10 | > 10 | 0 | 0 | 0 | 0 | 0
13 | O=C(OCCN1CCOCC1)c1cccnc1Nc1cccc(C(F)(F)F)c1 [morniflumate] | 120 | 103 | 99 | 102 | 80.1 | 91.9 | 97.1 | 102 | 106 | 108 | 90.8 | 93.8 | 87.3 | 94.7 | 88.4 | 96.5 | 104 | 97.8 | 97.8 | 97.3 | 107 | 100 | 102 | 105 | 99.3 | > 10 | > 10 | > 10 | > 10 | > 10 | 0.5 | 0 | 0 | 0 | 0
